Reference: PMC8231113, “Protein Secondary Structure Affects Glycan Clustering in Native Mass Spectrometry” (Life, 2021)

Target: GII.4 Saga P dimer (Norovirus GII.4 (human norovirus), UniProt B5BTR7)
Assay: Native MS, specific glycan binding to P dimer after reference protein correction
Parameters: species or system human norovirus (hNoV)
Experimental: Prior to MS analysis, purified P dimers were buffer exchanged to 150 mM ammonium acetate (Sigma-Aldrich, reagent grade ≥98%) at pH 7 via centrifugal filter units at 12,000× g at 4 °C (Vivaspin 500, MWCO 10000, Sartorius). Glycans for native MS analysis were mixed with 1 µM (per monomer) purified GII.4 Saga P dimer and 3 µM of the reference proteins at indicated concentrations. Native mass spectra were measured at room temperature in positive ion mode on a high mass modified LCT Premier mass spectrometer (Waters/Micromass, UK and MS Vision, the Netherlands) with a nano-ESI source. In house-made gold-coated electrospray capillaries were used for direct-sample infusion without any accessory chromatographic separation. The voltages and pressures were optimized for non-covalent protein complexes. The gas pressure used in the source hexapole was set between 6.5 and 6.8 × 10^−2 mbar argon optimized for minimal complex dissociation and the backing pressure of the source roughing pump was set between 7.0 and 8.5 mbar. Spectra were recorded with applied voltages for the capillary and cone of 1.20 kV and 240 V, respectively. Note that charge state distributions for P dimers were sometimes slightly shifted as was the degree of glycan clustering per charge state. These changes were highly variable and not quantifiable.
For calibration of the raw data, a 25 mg/mL cesium iodide spectrum from the same day was used. MassLynx V4.1 (Waters, Manchester, UK) was used to assign peak series to protein species and to determine the mass after minimal smoothing. Furthermore, OriginPro 2016 SR2 (OriginLab, Northampton, MA, USA) was used for spectral deconvolution and curve fitting. Correction for nonspecific protein-ligand clustering was performed as described. Corrected peak areas were averaged and normalized to the free-protein signal. Data were based on at least three independent measurements. Python code Panda and Numpy package were used to calculate the specific binding of P dimers according to the glycan clustering ratio obtained from the selected reference protein candidates. Seaborn and matplotlib.pyplot package were imported into a python script to plot the results. The module of sklearn.linear model was applied for linear regression. The matplotlib and heatmap package were used to plot the heatmap.
Data from native ESI MS measurements were translated into dissociation constants (KD values). The detailed calculations were based on the equations listed below. A protein (P) and a glycan ligand (L) form a complex through non-covalent interactions leading to a reversible association described by (Equation (1)):(1) P+L⇌PL when equilibrium is reached, the KD can be calculated directly from the concentrations via the law of mass action (Equation (2)):(2) KD=[Pfree][Lfree]/[PL]
Theoretically, the KD is calculated by measuring the concentration of the three components (Pfree, Lfree, PL) in solution. Usually, these values are only indirectly accessible because they require ligand titration up to binding saturation. However, native MS allows for the directly measurement of Pfree and PL, from which Lfree can be calculated using the input concentrations. In the present work, the non-covalent interaction was measured in the gas phase assuming identical ESI and detection efficiency for free and glycan-associated proteins, both for the analyte and the reference protein. […] For P dimers, the equations reflect glycan binding to the individual monomers assuming that binding sites on each monomer are equal and independent.
Using R described in Equation (3), the KD calculation can be re-written into Equation (4) with the known initial concentration of glycan ligand [L0] and protein [P0], adapted from Sun et al.:(3) R=PLequil∕Pequil=∑nA(PL^n+)∕n∕∑nA(P^n+)∕n (4) KD =L0−RP0/1+R/R […]

SMILES: CC(=O)N[C@H]1[C@@H](O[C@H]2[C@@H](O)[C@@H](CO)O[C@@H](O[C@H]3[C@H](O)[C@@H](CO)OC(O)[C@@H]3NC(C)=O)[C@@H]2O[C@@H]2O[C@@H](C)[C@@H](O)[C@@H](O)[C@@H]2O)O[C@H](CO)[C@H](O)[C@@H]1O (stereo partly shown) [HBGA A, GalNAcα1-3(Fucα-2)Galβ1-3GlcNAc]
- Bound number of carbohydrates on Saga P dimer (ref. protein ADH, glycan 100 µM): 0
- Bound number of carbohydrates on Saga P dimer (ref. protein ADH, glycan 200 µM): 0
- Bound number of carbohydrates on Saga P dimer (ref. protein ADH, glycan 300 µM): 0
- Bound number of carbohydrates on Saga P dimer (ref. protein ADH, glycan 400 µM): 0
- Bound number of carbohydrates on Saga P dimer (ref. protein ADH, glycan 500 µM): 0
- Bound number of carbohydrates on Saga P dimer (ref. protein CA, glycan 100 µM): 1
- Bound number of carbohydrates on Saga P dimer (ref. protein CA, glycan 200 µM): 1
- Bound number of carbohydrates on Saga P dimer (ref. protein CA, glycan 300 µM): 1
- Bound number of carbohydrates on Saga P dimer (ref. protein CA, glycan 400 µM): 1
- Bound number of carbohydrates on Saga P dimer (ref. protein CA, glycan 500 µM): 1
- Bound number of carbohydrates on Saga P dimer (ref. protein Cyto c, glycan 100 µM): 2
- Bound number of carbohydrates on Saga P dimer (ref. protein Cyto c, glycan 200 µM): 3
- Bound number of carbohydrates on Saga P dimer (ref. protein Cyto c, glycan 300 µM): 3
- Bound number of carbohydrates on Saga P dimer (ref. protein Cyto c, glycan 400 µM): 4
- Bound number of carbohydrates on Saga P dimer (ref. protein Cyto c, glycan 500 µM): 4
- Bound number of carbohydrates on Saga P dimer (ref. protein GFP, glycan 100 µM): 1
- Bound number of carbohydrates on Saga P dimer (ref. protein GFP, glycan 200 µM): 1
- Bound number of carbohydrates on Saga P dimer (ref. protein GFP, glycan 300 µM): 1
- Bound number of carbohydrates on Saga P dimer (ref. protein GFP, glycan 400 µM): 1
- Bound number of carbohydrates on Saga P dimer (ref. protein GFP, glycan 500 µM): 1
- Bound number of carbohydrates on Saga P dimer (ref. protein LDH, glycan 100 µM): 0
- Bound number of carbohydrates on Saga P dimer (ref. protein LDH, glycan 200 µM): 0
- Bound number of carbohydrates on Saga P dimer (ref. protein LDH, glycan 300 µM): 0
- Bound number of carbohydrates on Saga P dimer (ref. protein LDH, glycan 400 µM): 0
- Bound number of carbohydrates on Saga P dimer (ref. protein LDH, glycan 500 µM): 1
- Bound number of carbohydrates on Saga P dimer (ref. protein Myo, glycan 100 µM): 2
- Bound number of carbohydrates on Saga P dimer (ref. protein Myo, glycan 200 µM): 3
- Bound number of carbohydrates on Saga P dimer (ref. protein Myo, glycan 300 µM): 3
- Bound number of carbohydrates on Saga P dimer (ref. protein Myo, glycan 400 µM): 3
- Bound number of carbohydrates on Saga P dimer (ref. protein Myo, glycan 500 µM): 4
- Bound number of carbohydrates on Saga P dimer (ref. protein Ubq, glycan 100 µM): 2
- Bound number of carbohydrates on Saga P dimer (ref. protein Ubq, glycan 200 µM): 3
- Bound number of carbohydrates on Saga P dimer (ref. protein Ubq, glycan 300 µM): 4
- Bound number of carbohydrates on Saga P dimer (ref. protein Ubq, glycan 400 µM): 4
- Bound number of carbohydrates on Saga P dimer (ref. protein Ubq, glycan 500 µM): 4
- Bound number of carbohydrates on Saga P dimer (ref. protein apo-TFF, glycan 100 µM): 0
- Bound number of carbohydrates on Saga P dimer (ref. protein apo-TFF, glycan 200 µM): 0
- Bound number of carbohydrates on Saga P dimer (ref. protein apo-TFF, glycan 300 µM): 1
- Bound number of carbohydrates on Saga P dimer (ref. protein apo-TFF, glycan 400 µM): 1
- Bound number of carbohydrates on Saga P dimer (ref. protein apo-TFF, glycan 500 µM): 1
